# From patent US20050187264A1, “Phosphodiesterase iv inhibitor containing pyridylacrylamide derivative” (priority 2002, published 2005)
# Tested on: Phosphodiesterase IV
# Experiment: Inhibitory action on phosphodiesterase IV ([3H]cAMP hydrolysis, liquid scintillation)
# Assay type: biochemical
# Conditions: test substance 10 μM; enzyme isolated from U-937 cell; cAMP 1 μM substrate; 30 min at 30° C.; duplicate
# Protocol: Phosphodiesterase IV was isolated using U-937 cell as origin (Torphy, T. J. et al., J. Pharmacol. Exp. Ther., 263, 1195-1205 (1992)). Using [^3 H]cAMP and cAMP (1 μM) as substrate/tracer, incubation was performed for 30 min at 30° C. [^3H]5′-AMP was measured by liquid scintillation. Inhibitory activity is represented by the rate of inhibition of a test substance with respect to a control group that is without the test substance, and is calculated by the following formula: Inhibitory activity (%)=100×(control group value−value of group with test substance addition/control group value.
# All tests were implemented in duplicate.
row,Structure (SMILES),Phosphodiesterase IV inhibitory activity (10 μM) [%]
1,COc1ccc(CCN(C)C(=O)/C(C#N)=C/c2cccnc2)cc1OC [Compound 2],72
2,"COc1ccc(CCN(C)C(=O)/C=C/c2cccnc2)cc1OC [Compound 84, (E)-N-(3,4-dimethoxyphenethyl)-N-methyl-3-(3-pyridyl)-2-propenamide]",49
3,"COc1ccc(CCN(C)C(=S)/C=C/c2cccnc2)cc1OC.Cl [Compound 135, (E)-N-(3,4-dimethoxyphenethyl)-N-methyl-3-(3-pyridyl)-2-propenethioamide Hydrochloride]",53
4,COc1ccc(CCNC(=S)/C=C/c2cccnc2)cc1OC.Cl [Compound 136],45
5,COc1ccc(CCN(C)C(=O)/C=C/c2cccnc2)cc1OC.Cl [Compound 140],54
6,COc1ccc(CCN(C)C(=O)/C=C/c2cccnc2)cc1OC [Compound 143],50
7,COc1ccc(CCN(C)C(=O)/C=C/c2cccnc2)cc1OC [Compound 144],47
8,COc1ccc(CCN(C)C(=O)/C=C/c2cccnc2)cc1OC [Compound 146],43
9,COc1ccc(CCN(C)C(=O)/C=C/c2ccccn2)cc1OC.Cl [Compound 153],59
10,"COc1ccc(C(=O)CN(C)C(=O)/C=C/c2cccnc2)cc1OC [Compound 155, (E)-N-[2-(3,4-dimethoxyphenyl)-2-oxoethyl]-N-methyl-3-(3-pyridyl)-2-propenamide]",69

# Tested on: not given
# Experiment: not given
# Conditions: not given
row,Structure (SMILES),melting point [°C]
1,COC(=O)CN(CCc1ccc(OC)c(OC)c1)C(=O)/C=C/c1cccnc1.Cl,168 to 170
2,COc1ccc(CCN(C)C(=O)/C(C#N)=C/c2cccnc2)cc1OC [Compound 2],115 to 120
3,COCCOCOc1c(OC)cc(CCN(C)C(=O)/C=C/c2cccnc2)cc1OC [Compound 36],152 to 155
4,CCOC(=O)COc1ccc(CNC(=O)/C=C/c2cccnc2)cc1OC [Compound 105],105 to 107
5,COc1ccc(CCNC(=S)/C=C/c2cccnc2)cc1OC.Cl [Compound 136],182 to 187
